The record followed here is US20250237648A1, “BACTERIAL BIOSENSORS FOR DIAGNOSING AND TREATING INFLAMMATION” (Baylor College of Medicine, priority 2022, published 2025).

“And” between values parts separate entries of the source, which are not always exact repeats. Equal entries are not always repeated. Where two headings read alike, the source gives them in different places.

What all share (type): cell-based, Escherichia coli Nissle 1917
In data set [1] the test system is Pykg, Pent and Pabt promoter constructs. The experiment in a line: TPEN induction of promoter-sfgfp constructs (fluorescence). The note with it: M9 minimal medium. How it is done:
Selection of the ykgMO promoter to sense calprotectin levels. To assess the ykg, ent, and abt promoters as potential sensors of the metal sequestration activity of calprotectin, Pykg, Pent, and Paht were cloned into plasmid pColE1 driving the expression of superfolder GFP (sfgfp). Sensor fluorescence was next analyzed in M9 minimal medium and used metal chelator TPEN to mimic the metal depletion of calprotectin.
EcN biosensor constructs were grown to early log phase (˜0.1 OD600) in M9 media with glucose, and were back diluted to 0.01 OD600 and then grown for ˜4 hours aerobically, until OD600 reached ˜0.15. At this point, cells were kept on ice until analysis on a Becton Dickinson FACScan flow cytometer. Flow cytometry runs were performed in 96 well plates. Briefly, 10-40 μL of cells were added to 1 mL of PBS sheath fluid and run through the flow cytometer for a total of 10000 events. Cells were thresholded on forward/side scatter, and .fsc files were analyzed with the FlowCal software. In short, FlowCal identifies the densest region of cells on the associated scatterplot, and analyzes the fluorescent output of 30% of the cells in this region so as to evaluate a homogenous dataset and remove possible outliers. […] In this case, sfGFP output is reported as molecules of equivalent fluorophores (MEF), and was evaluated on the FL1 channel. […]

The test system of a further data set is ykgMO, ent and abt genes. Put plainly: RT-qPCR verification of calprotectin-responsive genes with TPEN. The note with it: 30 μM TPEN, LB media, 30 minutes. From the text:
FIGS. 1A-1K. Selection of the ykgMO promoter to sense calprotectin levels and sensitivity of ygkMO, ent and abt biosensors to metal starvation. 1A: Sensitivity of ykgMO (50S Ribosomal Protein L36/L31 type B) promoter (Pykg) biosensor to calprotectin; 1B-ID: Sensitivity of ent (1B), abt (1C), and ykg (1D) promoter constructs to TPEN in M9 media detected by Flow Cytometer; 1E: Minimum inhibitory concentration (MIC) of calprotectin on E. coli Nissile1917 (referred to EcN) in LB media; IF: Upregulation of calprotectin responsive promoters with TPEN induction in LB media verified by RT-qPCR; 1G: Sensitivity of ent promoter construct to TPEN in M9 media detected by plate reader; 1H: Sensitivity of abt promoter construct to TPEN in M9 media detected by plate reader; 1I: Sensitivity of ykg promoter construct to TPEN in M9 media detected by plate reader; 1J: Upregulation of calprotectin responsive ykgMO) promoter with TPEN induction in M9 media verified by RT-qPCR; 1K: Quenching of different ions on Pykg biosensor (EcN/pBSI0). Equimolar (1.5 μM) or 10×-excess (15 μM) of Zn^2+, Mn^2+, and Fe^2+ were added to Pykg biosensor co-cultured with 40 μg/mL calprotectin in M9 media. 1.5 μM (equivalent metal binding capacity of 40 μg/mL calprotectin), 3 μM, or 30 μM co-cultured with E. coli Nissle 1917 biosensors in pure culture. Calprotectin only-N=9. […]
For orientation: Quantitative PCR measures a nucleic acid by following its amplification.

Data set [2] concerns Pykg biosensor (EcN/pBSI0).
Method: To validate that the Pykg is sensitive to zinc but not other metals bound by calprotectin, BSI0 was incubated with 40 μg/mL of calprotectin with or without supplementation of an equimolar amount of zinc, manganese, or iron.
Mixes were similar to the calprotectin induction assays with the addition of zinc sulfate, manganese sulfate, or iron chloride. Concentrations of metals were added in excess of 1× and 10× the binding capacity of 40 μg/mL (1.5 μM) calprotectin. In total, 4 μM and 40 μM of zinc and iron were added, and 2 μM and 20 μM of manganese was added.
A further data set relates to ykg promoter. The experiment in a line: Zur expression optimization for low basal expression of ykg promoter. The note with it: zur driven by constitutive promoter on same plasmid. The text has this:
To increase the dynamic range of the Pykg expression, the high level of basal expression when the operon is not activated by zinc limitation needed to be reduced. It was considered that the basal level of expression was high because the ykg promoter was being expressed from a multicopy plasmid while the Zur repressor was being synthesized from the chromosome, altering their normal stoichiometry. To identify the optimal level of Zur to reduce the basal expression while maintaining the ability to respond to zinc limitation, several constructs were tested in which the zur gene was driven by constitutive promoters of increasing strength on the same plasmid as the ykg promoter (FIG. 2A) . . . . […] Other promoters were either too weak (J23113) to reduce the basal level of promoter expression or were too strong (J23100, J23110) to allow induction of the Pykg upon zinc depletion. Additional studies utilized the J23109 promoter construct, now denoted as pBSI1 (bacterial sensor of inflammation).
To reduce the background of Pygk biosensor, zinc binding transcription factor Zur was inserted into pColE-based sensor construct (pColE1-Pykg-sfgfp) under the control of different constitutive expresison promoters. […] The sensitivity and expression strength of new biosensor constructs was analyzed through fluorescence detection and RT-qPCR.

Data set [3] relates to ATP-binding cassette transporter cluster (abt). The experiment in a line: RNA sequencing of calprotectin-treated EcN: abt cluster. The settings on record: 125 μg/mL calprotectin 30 min, LB, over untreated cells. How it is done:
(§1) It was considered that exposing EcN to a sub-inhibitory concentration of calprotectin that was near the MIC would yield the best opportunity to identify physiologically relevant promoters that respond to calprotectin. The minimal inhibitory concentration of calprotectin (250 μg/mL) was first identified using EcN growth in LB media (FIG. 1E). Therefore, EcN were grown into the mid-exponential phase in LB media and then treated cultures with 125 µg/mL of calprotectin for 30 minutes or without calprotectin as a negative control. As an additional control, a mutant version was used of calprotectin that lacks the ability to bind metals, rendering the protein unable to carry out nutritional immunity.
(§2) For transcriptome analysis, EcN cells were grown overnight, and then back-diluted 1:100 into 5 mL of LB broth. When cells were grown up to the log phase, the sub-inhibitory amount of calprotectin was added to the cultures at a final concentration of 125 μg/mL. […] RNA was quantified and tested for purity using a Denovix spectrophotometer (Denovix, Wilmington, Delaware). RNA-seq was performed by Applied Biological Materials (ABM) (Richmond, British Columbia, Canada) on an Illumina NextSeq sequencer, at an average of 5 million reads per sample. rRNA depletion and quality check were also performed by ABM. […]

Data set [4] has as its system E. coli Nissle 1917 (EcN). Put plainly: Minimum inhibitory concentration of calprotectin on EcN. The note with it: 10^4 EcN cells, overnight, LB media, two-fold dilutions. How it is done:
Identification of E. coli Nissle promoters responsive to calprotectin. […] Currently, fecal calprotectin levels are used as a non-invasive way of monitoring intestinal inflammation, however compliance with such tests is low due to the need for patients to handle their own feces. Therefore, the development of an ingestible bacterial biosensor that would sense and report intestinal inflammation was contemplated. […] To do this the minimal inhibitory concentration of calprotectin incubated with EcN in vitro was first identified.
as §1
To explore biosensor promoters that can respond to calprotectin, the transcriptome of EcN treated with the sub-inhibitory amount of calprotectin was analyzed. […]

The test system of data set [5] is ykgMO operon (50S Ribosomal Protein L36/L31 type B). The experiment in a line: RNA sequencing of calprotectin-treated EcN: ykgMO operon. The settings on record: 125 μg/mL calprotectin 30 min, LB, over untreated cells. How it is done: as §1, §2
Data set [6] concerns siderophore enterobactin operon (ent). The experiment in a line: RNA sequencing of calprotectin-treated EcN: ent operon. The settings on record: 125 μg/mL calprotectin 30 min, LB, over untreated cells. The method, then:
as §1, §2

[7] abbreviates: 40 μg/mL calprotectin, equimolar metal, M9.

`c1ccc(CN(CCN(Cc2ccccn2)Cc2ccccn2)Cc2ccccn2)nc1` [TPEN, N,N,N′, N′-tetrakis(2-pyridinylmethyl)-1,2-ethanediamine]: in data set [1], the “activation of promoter constructs (sfGFP fluorescence) compared to control” value is listed as 2-3 fold. The “gene upregulation by RT-qPCR” value in the data set with ykgMO, ent and abt genes is “upregulated”.

Regarding `O=S(=O)([O-])[O-].[Zn+2]` [Zn, zinc sulfate], the “repression of BSI0 activation in the presence of calprotectin” value in data set [2] is recorded as “totally repress the activation”. As for “J23109: constitutive promoter (SEQ ID NO: 5) driving zur; construct denoted pBSI1 (DNA TTTACAGCTAGCTCAGTCCTAGGGACTGTGCTAGC; listed as DNA, chemistry not fully specified)”, in the data set on ykg promoter, the “reduction of basal expression from the ykg promoter” value was found to be 100 fold. Same read-out and setting: as for “J23114: constitutive promoter (SEQ ID NO: 4) driving zur on the ykg promoter plasmid (DNA TTTATGGCTAGCTCAGTCCTAGGTACAATGCTAGC; listed as DNA, chemistry not fully specified)”, the figure is 100 fold. As to iron chloride [Fe], in data set [2] (setting [7]), the “repression of BSI0 activation in the presence of calprotectin” value is “not”. The same measure, in the same setting: as for manganese sulfate [Mn], the entry is “not”.

B1: calprotectin: Recombinant human calprotectin; neutrophil-source antimicrobial protein that sequesters zinc, manganese and iron (protein, UniProt P05109 1-93; P06702 1-114, looked up)
Protein S100-A8: MLTELEKALNSIIDVYHKYSLIKGNFHAVYRDDLKKLLETECPQYIRKKGADVWFKELDINTDGAVNFQEFLILVIKMGVAAHKKSHEESHKE
Protein S100-A9: MTCKMSQLERNIETIINTFHQYSVKLGHPDTLNQGEFKELVRKDLQNFLKKENKNEKVIEHIMEDLDTNADKQLSFEEFIMLMARLTWASHEKMHEGDEGPGHHHKPGLGEGTP
On to B1, for which the “Fold-Change in Gene Expression, ABC transporter cluster” value in data set [3] was 3.80-9.44 fold. In addition, the “minimal inhibitory concentration of calprotectin” value in data set [4] was 256 µg/mL and 250 µg/mL. In addition, the “Fold-Change in Gene Expression, ykgMO” value in data set [5] is recorded as “up to 10.3 fold”; in data set [5] (listed as Calprotectin), 4.20-10.26 fold. Moreover, the “Fold-Change in Gene Expression, ent operon” value in data set [6] is “up to 4.8 fold”; in data set [6] (listed as Calprotectin), 4.38-4.78 fold.
